IC50 and Ki data for 14 compounds are collected here from ChEMBL document CHEMBL1909046, “DrugMatrix in vitro pharmacology data”.

Assay [1] in a line: DRUGMATRIX: Phosphodiesterase PDE4 enzyme inhibition (substrate: [3H]cAMP + cAMP). The following applies: u-937, Not Active = under 50% inhibition at 10 µM.
Assay [2] is described as follows: DRUGMATRIX: Glutamate, AMPA radioligand binding (ligand: [3H] AMPA). The following applies: Not Active = under 50% inhibition at 10 µM. It counts as cell membranes, Rattus norvegicus, Wistar, Cerebral cortex, Membrane.
Assay [3] is described as follows: DRUGMATRIX: Nicotinic Acetylcholine radioligand binding (ligand: [125I] Epibatidine). It is filed as cell membranes, Membrane. The following applies: imr-32; Not Active = under 50% inhibition at 10 µM.
Assay [4] in a line: DRUGMATRIX: Platelet-Derived Growth Factor (PDGF) radioligand binding (ligand: [125I] PDGF). It is filed as cell-based. The conditions noted are these: nih3t3; Not Active = under 50% inhibition at 10 µM.
Assay [5] deals with Mitogen-activated protein kinase 14 (Homo sapiens, UniProt Q16539). On the set-up: species or system Escherichia coli.
Mitogen-activated protein kinase 14, sequence (Q16539 whole entry): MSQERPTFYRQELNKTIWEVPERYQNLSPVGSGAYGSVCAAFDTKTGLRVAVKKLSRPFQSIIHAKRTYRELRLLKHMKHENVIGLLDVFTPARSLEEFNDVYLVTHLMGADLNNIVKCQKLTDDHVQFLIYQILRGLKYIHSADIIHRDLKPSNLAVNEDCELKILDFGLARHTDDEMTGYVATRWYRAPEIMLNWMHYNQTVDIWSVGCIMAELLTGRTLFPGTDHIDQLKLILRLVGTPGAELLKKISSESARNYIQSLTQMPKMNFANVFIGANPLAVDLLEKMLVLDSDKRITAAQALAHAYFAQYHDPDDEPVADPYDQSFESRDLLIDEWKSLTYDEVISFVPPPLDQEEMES
The next assay addresses T1, B2 bradykinin receptor (Homo sapiens, UniProt P30411).
T1 sequence (P30411 whole entry): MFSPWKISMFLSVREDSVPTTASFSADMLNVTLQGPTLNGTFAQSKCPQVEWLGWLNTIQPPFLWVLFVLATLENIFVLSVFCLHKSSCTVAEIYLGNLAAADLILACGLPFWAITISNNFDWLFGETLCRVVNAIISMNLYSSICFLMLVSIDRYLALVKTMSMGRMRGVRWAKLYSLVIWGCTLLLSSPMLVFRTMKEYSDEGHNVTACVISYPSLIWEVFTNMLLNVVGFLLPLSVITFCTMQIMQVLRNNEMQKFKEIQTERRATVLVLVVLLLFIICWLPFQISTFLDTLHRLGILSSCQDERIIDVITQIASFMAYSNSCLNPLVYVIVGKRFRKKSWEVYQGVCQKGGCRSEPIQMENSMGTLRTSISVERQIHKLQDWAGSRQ
It counts as cell membranes, Membrane. The conditions noted are these: chem-1.

The target in assay [6] is T2, C-C chemokine receptor type 4 (Homo sapiens, UniProt P51679). Further: in other assays of this panel Not Active means under 50% inhibition at 10 µM.
T2 sequence (P51679 whole entry): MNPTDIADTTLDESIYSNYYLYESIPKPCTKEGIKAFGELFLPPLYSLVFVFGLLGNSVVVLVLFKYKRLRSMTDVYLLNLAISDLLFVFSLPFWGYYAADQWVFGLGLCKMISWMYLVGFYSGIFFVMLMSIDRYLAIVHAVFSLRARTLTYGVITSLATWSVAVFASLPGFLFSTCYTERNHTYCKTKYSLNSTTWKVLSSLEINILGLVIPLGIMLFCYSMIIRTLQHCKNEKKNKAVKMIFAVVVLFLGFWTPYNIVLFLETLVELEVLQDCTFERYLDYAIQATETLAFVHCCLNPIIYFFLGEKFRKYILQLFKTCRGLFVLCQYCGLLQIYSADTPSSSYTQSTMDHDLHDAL
It is filed as cell membranes, Membrane. The conditions noted are these: chem-1.

Assay [7] concerns the target Epidermal growth factor receptor (Homo sapiens, UniProt P00533). The assay is described as follows: DRUGMATRIX: Protein Tyrosine Kinase, EGF Receptor enzyme inhibition (substrate: Poly(Glu:Tyr)). The following applies: insect cells; Not Active = under 50% inhibition at 10 µM. It is filed as cell-based, Insect cells.

Epidermal growth factor receptor, sequence (P00533 whole entry): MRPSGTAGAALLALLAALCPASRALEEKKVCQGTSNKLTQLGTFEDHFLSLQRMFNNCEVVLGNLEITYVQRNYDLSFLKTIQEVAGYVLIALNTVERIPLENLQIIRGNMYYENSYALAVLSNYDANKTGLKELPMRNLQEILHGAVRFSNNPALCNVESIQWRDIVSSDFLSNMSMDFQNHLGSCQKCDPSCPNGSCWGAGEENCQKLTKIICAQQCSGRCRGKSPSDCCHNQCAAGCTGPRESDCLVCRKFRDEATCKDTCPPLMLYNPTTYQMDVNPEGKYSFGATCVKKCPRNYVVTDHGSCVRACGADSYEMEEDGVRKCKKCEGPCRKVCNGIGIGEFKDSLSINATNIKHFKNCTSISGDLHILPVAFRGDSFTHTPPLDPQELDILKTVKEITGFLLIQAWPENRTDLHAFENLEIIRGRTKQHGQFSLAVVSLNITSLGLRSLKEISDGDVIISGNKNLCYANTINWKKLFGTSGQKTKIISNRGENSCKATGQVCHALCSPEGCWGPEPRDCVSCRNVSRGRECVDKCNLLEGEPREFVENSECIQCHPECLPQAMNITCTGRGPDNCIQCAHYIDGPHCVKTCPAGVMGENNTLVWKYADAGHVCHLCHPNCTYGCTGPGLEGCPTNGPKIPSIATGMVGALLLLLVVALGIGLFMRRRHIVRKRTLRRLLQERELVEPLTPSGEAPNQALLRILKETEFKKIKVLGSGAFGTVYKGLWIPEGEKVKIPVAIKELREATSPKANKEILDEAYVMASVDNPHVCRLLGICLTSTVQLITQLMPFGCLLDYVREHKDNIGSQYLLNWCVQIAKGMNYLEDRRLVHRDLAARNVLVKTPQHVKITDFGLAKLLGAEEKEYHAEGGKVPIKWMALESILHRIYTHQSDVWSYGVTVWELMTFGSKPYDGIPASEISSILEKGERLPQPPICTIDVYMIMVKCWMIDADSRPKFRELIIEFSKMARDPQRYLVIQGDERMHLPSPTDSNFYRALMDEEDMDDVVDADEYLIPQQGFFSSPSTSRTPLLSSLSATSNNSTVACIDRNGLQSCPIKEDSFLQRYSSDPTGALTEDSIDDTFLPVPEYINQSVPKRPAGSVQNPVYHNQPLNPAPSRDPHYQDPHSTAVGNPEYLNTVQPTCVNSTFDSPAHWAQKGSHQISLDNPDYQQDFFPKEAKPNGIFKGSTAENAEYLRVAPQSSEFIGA

Take `CC(C)NCC(O)c1ccc(O)c(O)c1` (configuration not stated) [ISOPROTERENOL]: the IC50 entry (in assay [1]; in assay [2]; in assay [3]; in assay [4]; in assay [5]; against B2 bradykinin receptor) was “Not Active” throughout. Moreover, the IC50 entry in assay [6] and in assay [7] was “Not Active” throughout. The Ki entry in assay [1], in assay [2], in assay [3] and in assay [4] was “Not Active” each time.

For the compound `CNC1(c2ccccc2Cl)CCCCC1=O` (configuration not stated) [KETAMINE], the IC50 result (in assay [1]; in assay [2]; in assay [3]; in assay [4]; in assay [5]; against B2 bradykinin receptor) was “Not Active” throughout. The IC50 result in assay [6] and in assay [7] was “Not Active” in each case. In addition, the Ki entry in assay [1], in assay [2], in assay [3] and in assay [4] was “Not Active” throughout.

For the compound `N#Cc1ccc(C(c2ccc(C#N)cc2)n2cncn2)cc1` [LETROZOLE], the IC50 result (in assay [1]; in assay [2]; in assay [3]; in assay [4]; in assay [5]; against B2 bradykinin receptor) was “Not Active” in each case. The IC50 entry in assay [6] and in assay [7] was “Not Active” throughout. The Ki result in assay [1], in assay [2], in assay [3] and in assay [4] was “Not Active” each time.

On to `CCN1CCC[C@H]1CNC(=O)c1cc(S(N)(=O)=O)ccc1OC` [LEVOSULPIRIDE], for which the IC50 entry (in assay [1]; in assay [2]; in assay [3]; in assay [4]; in assay [5]; at B2 bradykinin receptor) was “Not Active” throughout. The IC50 entry in assay [6] and in assay [7] was “Not Active” throughout. Moreover, the Ki result in assay [1], in assay [2], in assay [3] and in assay [4] was “Not Active” throughout.

For `CCN(CC)CC(=O)Nc1c(C)cccc1C` [LIDOCAINE], the IC50 result (in assay [1]; in assay [2]; in assay [3]; in assay [4]; in assay [5]; at B2 bradykinin receptor) was “Not Active” each time. The half-maximal inhibitory concentration (IC50) entry in assay [6] and in assay [7] was “Not Active” throughout. Moreover, the Ki entry in assay [1], in assay [2], in assay [3] and in assay [4] was “Not Active” in each case.

Turning to `O=C1Nc2ccc(Cl)cc2C(c2ccccc2Cl)=NC1O` (configuration not stated) [LORAZEPAM], the IC50 result (in assay [1]; in assay [2]; in assay [3]; in assay [4]; in assay [5]; on B2 bradykinin receptor) was “Not Active” in each case. Also, the half-inhibitory concentration (IC50) result in assay [6] and in assay [7] was “Not Active” throughout. Also, the Ki entry in assay [1], in assay [2], in assay [3] and in assay [4] was “Not Active” in each case.

On to `CO[C@@H]1[C@@H](OC)[C@H](C)[C@@](O)(CC(=O)O)O[C@H]1[C@H](C)[C@H]1O[C@@]2(CC[C@@](C)([C@H]3CC[C@@](C)([C@@H]4O[C@@H]([C@H]5O[C@](C)(O)[C@H](C)C[C@@H]5C)C[C@@H]4O[C@@H]4C[C@H](OC)[C@@H](OC)[C@H](C)O4)O3)O2)C[C@H](O)[C@H]1C` [MADURAMICIN ACID], for which the IC50 entry (in assay [1]; in assay [2]; in assay [3]; in assay [4]; in assay [5]; at B2 bradykinin receptor) was “Not Active” each time. For the same compound, the IC50 entry in assay [6] and in assay [7] was “Not Active” throughout. The Ki result in assay [1], in assay [2], in assay [3] and in assay [4] was “Not Active” throughout.

With `COc1c2occc2cc2ccc(=O)oc12` [METHOXSALEN], the IC50 entry (in assay [1]; in assay [2]; in assay [3]; in assay [4]; in assay [5]; at B2 bradykinin receptor) was “Not Active” each time. For the same compound, the IC50 result in assay [6] and in assay [7] was “Not Active” throughout. The Ki entry in assay [1], in assay [2], in assay [3] and in assay [4] was “Not Active” throughout.

Regarding `C[C@H]1C[C@@H]2[C@H]([C@@H](O)C[C@@]3(C)[C@H]2CC[C@]3(O)C(=O)CO)[C@@]2(C)C=CC(=O)C=C12` [METHYLPREDNISOLONE], the half-inhibitory concentration (IC50) result (in assay [1]; in assay [2]; in assay [3]; in assay [4]; in assay [5]; on B2 bradykinin receptor) was “Not Active” in each case. For the same compound, the IC50 result in assay [6] and in assay [7] was “Not Active” in each case. For the same compound, the Ki result in assay [1], in assay [2], in assay [3] and in assay [4] was “Not Active” each time.

On to `Cc1cccc(C)c1OCC(C)N` (configuration not stated) [MEXILETINE], for which the IC50 entry (in assay [1]; in assay [2]; in assay [3]; in assay [4]; in assay [5]; against B2 bradykinin receptor) was “Not Active” in each case. Besides, the IC50 result in assay [6] and in assay [7] was “Not Active” throughout. Further, the Ki entry in assay [1], in assay [2], in assay [3] and in assay [4] was “Not Active” in each case.

On to `Nc1cc(N2CCCCC2)nc(N)[n+]1[O-]` [MINOXIDIL], for which the IC50 result (in assay [1]; in assay [2]; in assay [3]; in assay [4]; in assay [5]; on B2 bradykinin receptor) was “Not Active” throughout. Besides, the IC50 result in assay [6] and in assay [7] was “Not Active” in each case. Also, the Ki entry in assay [1], in assay [2], in assay [3] and in assay [4] was “Not Active” in each case.

Take `CO[C@H]1/C=C/O[C@@]2(C)Oc3c(C)c(O)c4c(O)c(c(/C=N/N5CCN(C6CCCC6)CC5)c(O)c4c3C2=O)NC(=O)/C(C)=C\C=C\[C@H](C)[C@H](O)[C@@H](C)[C@@H](O)[C@@H](C)[C@H](OC(C)=O)[C@@H]1C` [RIFAPENTINE]: the IC50 entry (in assay [1]; in assay [2]; in assay [3]; in assay [4]; in assay [5]; at B2 bradykinin receptor) was “Not Active” each time. Moreover, the IC50 result in assay [6] and in assay [7] was “Not Active” in each case. Also, the Ki entry in assay [1], in assay [2], in assay [3] and in assay [4] was “Not Active” throughout.

Take `CCCCOc1cc(CC2CNC(=O)N2)ccc1OC` (configuration not stated) [RO-201724]: the IC50 – broadly, the concentration that inhibits the measured activity by half – in assay [1] (read-out: IC50) was 11.3 µM; in assay [2], “Not Active”; in assay [3] it was “Not Active”; in assay [4], “Not Active”; in assay [5], “Not Active”; against B2 bradykinin receptor it was “Not Active”. The half-inhibitory concentration (IC50) result in assay [6] and in assay [7] was “Not Active” in each case. In addition, the Ki result in assay [2], in assay [3] and in assay [4] was “Not Active” each time.

For the compound `CC[C@@H](C(=O)[C@@H](C)[C@@H](O)[C@H](C)[C@@H]1O[C@@H]([C@@H](CC)C(=O)O)CC[C@@H]1C)[C@H]1O[C@]2(C=C[C@@H](O)[C@]3(CC[C@@](C)([C@H]4CC[C@](O)(CC)[C@H](C)O4)O3)O2)[C@H](C)C[C@@H]1C` [SALINOMYCIN], the concentration for half-maximal inhibition (IC50) result (in assay [1]; in assay [2]; in assay [3]; in assay [4]; in assay [5]; at B2 bradykinin receptor) was “Not Active” throughout. Further, the IC50 result in assay [6] and in assay [7] was “Not Active” in each case. Besides, the Ki result in assay [1], in assay [2], in assay [3] and in assay [4] was “Not Active” throughout.
